Reference: US20100119599A1 (ARCHER PHARMACEUTICALS, INC., priority 2006, published 2010)
Like-named read-outs stand apart in the source and are kept apart here.

Experiments:
Aβ1-40 = experiment: Measurement of Aβ1-40 in culture medium of 7W WT APP751 CHO cells by ELISA; assay type: cell-based, Chinese hamster; conditions: for activity at 5 µM: Cricetulus griseus, 5 μM test compound, CHO cells stably transfected with human APP751, culture medium, ELISA, control DMSO; for Aβ1-40 (% of control): CHO cells that overexpress APP751, zero = below the detection limit of the assay;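 on all read-outs here: 5 µM test compound but RI-coded compounds at 10 µM for 24 hours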
Aβ1-42 = experiment: Measurement of Aβ1-42 in culture medium of 7W WT APP751 CHO cells by ELISA; assay type: cell-based, Chinese hamster; conditions: for activity at 5 µM: Cricetulus griseus, 5 μM test compound, CHO cells stably transfected with human APP751, culture medium, ELISA, control DMSO; for Aβ1-42 (% of control): CHO cells that overexpress APP751, zero = below the detection limit of the assay;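 on Aβ1-42 (% of control): 5 µM test compound but RI-coded compounds at 10 µM for 24 hours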
[1] = Table 1, 0 = no detectable amount
[2] = Table 1, 0 = no detectable amount, read-out: Aβ1-42 (% of control)

Row | Compound | activity at 5 µM (Aβ1-40; [1]) | activity at 5 µM (Aβ1-42; [2]) | Aβ1-40 (% of control) (Aβ1-40) | Aβ1-42 (% of control) (Aβ1-42) | also measured
1 | COCCOC(=O)C1=C(C)NC2=C(C(=O)CC(c3ccc(OC)cc3)C2)C1c1ccc2c(c1)OCO2 (stereo not drawn) [ST017094, 2-methoxyethyl 4-(2H-benzo[3,4-d]1,3-dioxolen-5-yl)-7-(4-methoxyphenyl)-2-methyl-5-oxo-1,4,6,7,8-pentahydroquinoline-3-carboxylate] | 68.9% | 73.8% |  |  | 
2 | CC1=C(C(=O)OCc2ccccc2)C(c2ccccc2Br)C2=C(CCCC2=O)N1 (stereo not drawn) [ST052408, phenylmethyl 4-(2-bromophenyl)-2-methyl-5-oxo-1,4,6,7,8-pentahydroquinoline-3-carboxylate] | 63% | 63.4% |  |  | 
3 | COC(=O)C1=CN(C2CC2)C=C(C(=O)OC)C1c1cc2c(cc1Cl)OCO2 [ST051458, methyl 4-(6-chloro(2H-benzo[d]1,3-dioxolan-5-yl))-1-cyclopropyl-5-(methoxycarbonyl)-1,4-dihydropyridine-3-carboxylate] |  |  | 77.81 % of control | 59.9 % of control | 
4 | CCC(C)OC(=O)C1=C(C)NC2=C(C(=O)CC(c3ccc(OC)cc3)C2)C1c1cc2c(cc1[N+](=O)[O-])OCO2 (stereo not drawn) [ST017236, methylpropyl 7-(4-methoxyphenyl)-2-methyl-4-(6-nitro(2H-benzo[d]1,3-dioxolan-5-yl))-5-oxo-1,4,6,7,8-pentahydroquinoline-3-carboxylate] | 61% | 98.1% |  |  | 
5 | CCCCCOC(=O)C1=C(C)NC2=C(C(=O)CC(C)(C)C2)C1c1ccc(OC)cc1 (stereo not drawn) [ST216606, pentyl 4-(4-methoxyphenyl)-2,7,7-trimethyl-5-oxo-1,4,6,7,8-pentahydroquinoline-3-carboxylate] | 1.4% | 9.56% |  |  | 
6 | CCSCCOC(=O)C1=C(C)NC2=C(C(=O)CCC2)C1c1ccc(OCCO)c(OC)c1 (stereo not drawn) [ST017113, 2-ethylthioethyl 4-[4-(2-hydroxyethoxy)-3-methoxyphenyl]-2-methyl-5-oxo-1,4,6,7,8-pentahydroquinoline-3-carboxylate] | 82.6% | 74.1% |  |  | 
7 | CCCCCOC(=O)C1=C(C)NC2=C(C(=O)CC(C)(C)C2)C1c1cc2c(cc1Br)OCO2 (stereo not drawn) [ST216568, pentyl 4-(6-bromo(2H-benzo[d]1,3-dioxolan-5-yl))-2,7,7-trimethyl-5-oxo-1,4,6,7,8-pentahydroquinoline-3-carboxylate] | 14.8% | 24.7% |  |  | 
8 | CC1=C(C(=O)OC2CCCCC2)C(c2ccc(Cl)cc2)C2=C(CC(c3ccccc3)CC2=O)N1 (stereo not drawn) [ST013352, cyclohexyl 4-(4-chlorophenyl)-2-methyl-5-oxo-7-phenyl-1,4,6,7,8-pentahydroquinoline-3-carboxylate] | 22.4% | 84% |  |  | 
9 | N#CC1=C(N)n2c(s/c(=C\c3cccc(Br)c3)c2=O)=C(C#N)C1c1cccc(Br)c1 (stereo not drawn) [RI_96] |  |  | 71.3 % of control | 70.5 % of control | 
10 | COC(=O)C1=C(C)NC(SCC(=O)c2cccs2)=C(C#N)C1c1ccc2c(c1)OCCO2 (stereo not drawn) [ST014052, methyl 4-(2H,3H-benzo[3,4-e]1,4-dioxan-6-yl)-5-cyano-2-methyl-6-(2-oxo-2-(2-thienyl)ethylthio)-1,4-dihydropyridine-3-carboxylate] |  |  | 49 % of control | 74.69 % of control | 
11 | CCC(C)OC(=O)C1=C(C)NC2=C(C(=O)CC(c3ccc(Cl)cc3)C2)C1c1ccc(Cl)cc1 (stereo not drawn) [ST017089, methylpropyl 4,7-bis(4-chlorophenyl)-2-methyl-5-oxo-1,4,6,7,8-pentahydroquinoline-3-carboxylate] | 26.9% | 82.5% |  |  | 
12 | CC1=C(C(=O)Nc2ccccc2)C(c2cccs2)C(C#N)=C(SCC(=O)Nc2ccccc2)N1 (stereo not drawn) [RI_66] |  |  | 20.6 % of control | 23.6 % of control | 
13 | CC1=C(C(=O)OC2CCCCC2)C(c2ccc(Br)cc2)C2=C(CCCC2=O)N1 (stereo not drawn) [ST017170, cyclohexyl 4-(4-bromophenyl)-2-methyl-5-oxo-1,4,6,7,8-pentahydroquinoline-3-carboxylate] | 3.47% | 1.38% |  |  | 
14 | COC(=O)C1=C(C)NC2=C(C(=O)CC(c3cccs3)C2)C1c1ccc(Cl)c(Cl)c1 (stereo not drawn) [ST052414, methyl 4-(3,4-dichlorophenyl)-2-methyl-5-oxo-7-(2-thienyl)-1,4,6,7,8-pentahydroquinoline-3-carboxylate] | 70.2% | 66.9% |  |  | 
15 | CCCc1ccc(NC(=O)CSC2=C(C#N)C(c3ccsc3)C(C(=O)Nc3ccccc3)=C(C)N2)cc1 (stereo not drawn) [RI_52] |  |  | 50.3 % of control | 61.6 % of control | 
16 | COC(=O)C1=C(C)NC2=C(C(=O)CCC2)C1c1ccc(Cl)c([N+](=O)[O-])c1 (stereo not drawn) [ST052361, methyl 4-(4-chloro-3-nitrophenyl)-2-methyl-5-oxo-1,4,6,7,8-pentahydroquinoline-3-carboxylate] | 84.1% | 63.2% |  |  | 
17 | CCOc1cc(C2C(C(=O)OCCOC)=C(C)NC3=C2C(=O)CC(c2ccccc2)C3)cc(Br)c1O (stereo not drawn) [ST017060, 2-methoxyethyl4-(3-bromo-5-ethoxy-4-hydroxyphenyl)-2-methyl-5-oxo-7-phenyl-1,4,6,7,8-pentahydroquinoline-3-carboxylate] | 39% | 61.7% |  |  | 

Row | Compound | activity at 5 µM (Aβ1-40; [1]) | activity at 5 µM (Aβ1-42; [2]) | Aβ1-40 (% of control) (Aβ1-40) | Aβ1-42 (% of control) (Aβ1-42) | also measured
18 | N#CC1=C(N)n2c(s/c(=C/c3ccc(Cl)cc3Cl)c2=O)=C(C#N)C1c1ccc(Cl)cc1Cl (stereo not drawn) [ST003360, 5-amino-7-(2,4-dichlorophenyl)-2-[(2,4-dichlorophenyl)methylene]-3-oxo-4,7-dihydro-1,3-thiazolidino[3,2-a]pyridine-6,8-dicarbonitrile] |  |  | 63.37 % of control | 72.55 % of control | 
19 | CCCOC(=O)C1=C(C)NC2=C(C(=O)CC(C)(C)C2)C1c1ccncc1 (stereo not drawn) [ST017249, propyl 2,7,7-trimethyl-5-oxo-4-(4-pyridyl)-1,4,6,7,8-pentahydroquinoline-3-carboxylate] | 67% | 75.1% |  |  | 
20 | CCc1cccc(NC(=O)CSC2=C(C#N)C(c3cccs3)C(C(=O)Nc3ccccc3)=C(C)N2)c1 (stereo not drawn) [RI_45] |  |  | 82.7 % of control | 61.3 % of control | 
21 | CCCCOC(=O)C1=C(C)NC2=C(C(=O)CCC2)C1c1ccc(Cl)cc1 (stereo not drawn) [ST017175, butyl 4-(4-chlorophenyl)-2-methyl-5-oxo-1,4,6,7,8-pentahydroquinoline-3-carboxylate] | 59.8% | 34.5% |  |  | 
22 | COc1cc(Br)ccc1/C=c1\sc2n(c1=O)C(N)=C(C#N)C(c1ccc(Br)cc1OC)C=2C#N (stereo not drawn) [RI_94] |  |  | 73.2 % of control | 81.2 % of control | 
23 | CCSCCOC(=O)C1=C(C)NC2=C(C(=O)CCC2)C1c1ccc(C(=O)OC)cc1 (stereo not drawn) [ST017106, methyl 4-{3-[(2-ethylthioethyl)oxycarbonyl]-2-methyl-5-oxo-4-1,4,6,7,8-pentahydroquinolyl}benzoate] | 36.8% | 0% |  |  | 
24 | Cc1cccc(C(C)C)c1NC(=O)CSc1nc(C)c(C(=O)Nc2ccccc2)c(-c2cccs2)c1C#N [RI_36] |  |  | 35.9 % of control | 72.9 % of control | 
25 | CC1=C(C(=O)OC2CCCCC2)C(c2cccc(Cl)c2Cl)C2=C(CCCC2=O)N1 (stereo not drawn) [ST013188, cyclohexyl 4-(2,3-dichlorophenyl)-2-methyl-5-oxo-1,4,6,7,8-pentahydroquinoline-3-carboxylate] | 0% | 47.1% |  |  | 
26 | CC1=C(C(=O)OCCc2ccccc2)C(c2cccc(Br)c2)C2=C(CCCC2=O)N1 (stereo not drawn) [ST052221, 2-phenylethyl 4-(3-bromophenyl)-2-methyl-5-oxo-1,4,6,7,8-pentahydroquinoline-3-carboxylate] | 62.4% | 46.1% |  |  | 
27 | CCOc1ccc(C2C(C(=O)OC(C)C)=C(C)NC3=C2C(=O)CCC3)cc1OC (stereo not drawn) [ST013323, methylethyl 4-(4-ethoxy-3-methoxyphenyl)-2-methyl-5-oxo-1,4,6,7,8-pentahydroquinoline-3-carboxylate] | 56.7% | 80.1% |  |  | 
28 | CCSCCOC(=O)C1=C(C)NC2=C(C(=O)CC(c3ccccc3)C2)C1c1ccc(Br)cc1 (stereo not drawn) [ST017201, 2-ethylthioethyl 4-(4-bromophenyl)-2-methyl-5-oxo-7-phenyl-1,4,6,7,8-pentahydroquinoline-3-carboxylate] | 57.5% | 85.2% |  |  | 
29 | N#CC(C#N)=CC=C1C=CN(Cc2ccccc2)C=C1 [ST208051, {2-[1-benzyl-4-hydropyridylidene]ethylidene}methane-11-dicarbonitrile] |  |  |  |  | activity at 5 µM (Aβ1-40; Table 3): 57.1%; activity at 5 µM (Aβ1-42; Table 3, read-out: Aβ-42 (% of control)): 75%
30 | CC1=C(C(=O)Nc2ccccc2)C(c2cccs2)C(C#N)=C(SCC(=O)Nc2ccc(C(C)(C)C)cc2)N1 (stereo not drawn) [RI_63] |  |  | 38.2 % of control | 38.8 % of control | 
31 | CC1=C(C(=O)OC2CCCCC2)C(c2ccc(Cl)c(Cl)c2)C2=C(CC(c3ccccc3)CC2=O)N1 (stereo not drawn) [ST013350, cyclohexyl 4-(3,4-dichlorophenyl)-2-methyl-5-oxo-7-phenyl-1,4,6,7,8-pentahydroquinoline-3-carboxylate] | 25.1% | 95.6% |  |  | 
32 | COC(=O)C1=CNC=C(C(=O)OC)C1c1cccc(OCc2ccccc2)c1 [ST052273, methyl 5-(methoxycarbonyl)-4-[3-(phenylmethoxy)phenyl]-1,4-dihydropyridine-3-carboxylate] |  |  | 84.66 % of control | 57.92 % of control | 
33 | CCCCCOC(=O)C1=C(C)NC2=C(C(=O)CC(C)(C)C2)C1c1ccc(OCCC)cc1 (stereo not drawn) [ST217244, pentyl 2,7,7-trimethyl-5-oxo-4-(4-propoxyphenyl)-1,4,6,7,8-pentahydroquinoline-3-carboxylate] | 24.9% | 41.5% |  |  | 
